This is an account of results in ChEMBL document CHEMBL5291721, “A preclinical secondary pharmacology resource illuminates target-adverse drug reaction associations of marketed drugs” (Nat Commun, 2023).

In one experiment the target is T1, Adenosine receptor A1 (Homo sapiens, UniProt P30542).
T1 sequence (P30542 whole entry): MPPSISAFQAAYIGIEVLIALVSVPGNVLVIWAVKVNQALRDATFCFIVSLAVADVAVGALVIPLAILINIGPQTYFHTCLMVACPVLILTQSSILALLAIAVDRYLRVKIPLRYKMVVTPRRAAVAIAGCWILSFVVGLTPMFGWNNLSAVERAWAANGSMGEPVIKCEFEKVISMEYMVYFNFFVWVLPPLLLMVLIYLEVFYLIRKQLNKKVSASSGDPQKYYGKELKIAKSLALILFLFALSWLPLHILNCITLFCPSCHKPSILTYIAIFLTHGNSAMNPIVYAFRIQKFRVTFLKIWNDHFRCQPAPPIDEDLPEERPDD

The target in experiment [1] is T2, Alpha-1A adrenergic receptor (Homo sapiens, UniProt P35348).
T2 sequence (P35348 whole entry): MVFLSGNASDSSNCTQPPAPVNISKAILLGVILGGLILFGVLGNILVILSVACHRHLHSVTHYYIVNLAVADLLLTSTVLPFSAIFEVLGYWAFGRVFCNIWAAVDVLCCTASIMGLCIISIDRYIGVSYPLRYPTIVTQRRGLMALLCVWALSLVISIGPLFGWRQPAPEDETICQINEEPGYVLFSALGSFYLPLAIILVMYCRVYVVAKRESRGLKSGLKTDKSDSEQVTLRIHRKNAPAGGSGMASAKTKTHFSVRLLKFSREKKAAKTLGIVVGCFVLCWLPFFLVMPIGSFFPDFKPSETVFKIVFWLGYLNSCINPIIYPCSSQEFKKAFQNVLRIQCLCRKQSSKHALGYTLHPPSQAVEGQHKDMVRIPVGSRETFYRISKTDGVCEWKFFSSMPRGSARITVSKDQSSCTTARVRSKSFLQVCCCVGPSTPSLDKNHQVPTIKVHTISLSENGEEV
It is filed as functional, cell-based.

Experiment [2] deals with T3, Alpha-2A adrenergic receptor (Homo sapiens, UniProt P08913).
T3 sequence (P08913 whole entry): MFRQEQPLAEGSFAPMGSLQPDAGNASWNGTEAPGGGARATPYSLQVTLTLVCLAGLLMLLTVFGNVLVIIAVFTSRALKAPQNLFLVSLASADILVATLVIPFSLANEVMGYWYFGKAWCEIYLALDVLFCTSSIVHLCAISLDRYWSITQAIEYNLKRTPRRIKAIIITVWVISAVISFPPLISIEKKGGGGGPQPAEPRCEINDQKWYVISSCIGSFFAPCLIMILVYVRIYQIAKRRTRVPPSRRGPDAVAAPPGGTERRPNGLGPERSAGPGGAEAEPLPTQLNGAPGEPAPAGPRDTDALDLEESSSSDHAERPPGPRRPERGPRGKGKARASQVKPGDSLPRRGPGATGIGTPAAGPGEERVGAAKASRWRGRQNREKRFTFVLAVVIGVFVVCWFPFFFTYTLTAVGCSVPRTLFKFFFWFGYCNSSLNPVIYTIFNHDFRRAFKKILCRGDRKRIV
It is filed as functional, cell-based.

Another experiment has as its target T4, B2 bradykinin receptor (Homo sapiens, UniProt P30411).
T4 sequence (P30411 whole entry): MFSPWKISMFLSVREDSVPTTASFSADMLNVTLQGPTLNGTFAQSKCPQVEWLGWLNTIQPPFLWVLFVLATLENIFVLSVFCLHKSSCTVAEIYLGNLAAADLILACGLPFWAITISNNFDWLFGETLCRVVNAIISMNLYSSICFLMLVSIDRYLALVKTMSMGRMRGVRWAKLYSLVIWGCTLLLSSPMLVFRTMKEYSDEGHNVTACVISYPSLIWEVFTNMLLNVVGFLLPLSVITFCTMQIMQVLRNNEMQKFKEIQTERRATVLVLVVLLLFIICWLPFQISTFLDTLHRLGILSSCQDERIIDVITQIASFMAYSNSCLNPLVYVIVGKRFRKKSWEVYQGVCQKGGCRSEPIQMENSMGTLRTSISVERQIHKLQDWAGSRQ

The target of experiment [3] is T5, Gastrin/cholecystokinin type B receptor (Homo sapiens, UniProt P32239).
T5 sequence (P32239 whole entry): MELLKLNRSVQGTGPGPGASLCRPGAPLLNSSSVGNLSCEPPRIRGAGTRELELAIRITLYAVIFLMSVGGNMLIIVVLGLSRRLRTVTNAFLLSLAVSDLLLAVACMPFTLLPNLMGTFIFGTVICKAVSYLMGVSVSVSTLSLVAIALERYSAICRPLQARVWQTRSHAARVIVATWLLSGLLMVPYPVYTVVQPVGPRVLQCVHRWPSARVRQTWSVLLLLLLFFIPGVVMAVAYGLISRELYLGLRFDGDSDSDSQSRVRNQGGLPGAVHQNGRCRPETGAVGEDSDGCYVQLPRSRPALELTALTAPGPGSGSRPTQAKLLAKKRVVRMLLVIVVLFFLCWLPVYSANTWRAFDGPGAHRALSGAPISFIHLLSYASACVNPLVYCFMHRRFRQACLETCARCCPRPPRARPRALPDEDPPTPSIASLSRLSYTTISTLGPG

Experiment [4] concerns the target Muscarinic acetylcholine receptor M3 (Homo sapiens, UniProt P20309).
Another experiment deals with Histamine H1 receptor (Homo sapiens, UniProt P35367).
Experiment [5] deals with T6, 5-hydroxytryptamine receptor 1A (Homo sapiens, UniProt P08908).
T6 sequence (P08908 whole entry): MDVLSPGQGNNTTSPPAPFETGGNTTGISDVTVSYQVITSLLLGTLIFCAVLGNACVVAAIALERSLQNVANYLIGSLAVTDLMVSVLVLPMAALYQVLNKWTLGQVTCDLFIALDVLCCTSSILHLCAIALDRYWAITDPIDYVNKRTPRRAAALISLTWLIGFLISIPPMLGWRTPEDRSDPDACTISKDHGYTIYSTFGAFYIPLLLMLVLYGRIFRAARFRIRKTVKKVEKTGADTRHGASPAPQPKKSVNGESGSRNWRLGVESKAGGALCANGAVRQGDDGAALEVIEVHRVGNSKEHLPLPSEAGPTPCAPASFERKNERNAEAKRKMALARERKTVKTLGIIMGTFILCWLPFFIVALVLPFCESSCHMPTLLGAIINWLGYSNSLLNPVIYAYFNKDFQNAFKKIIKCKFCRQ
It is filed as functional, cell-based.

Experiment [6] concerns the target 5-hydroxytryptamine receptor 2A (Homo sapiens, UniProt P28223). Format: functional, cell-based.
The next experiment has as its target Mu-type opioid receptor (Homo sapiens, UniProt P35372).
For experiment [7], the target named is 5-hydroxytryptamine receptor 2B (Homo sapiens, UniProt P41595). Format: functional, cell-based.

Bounds are passed on as bounds.
Further: assay procedure not described here.

Chain of Muscarinic acetylcholine receptor M3 (P20309 whole entry): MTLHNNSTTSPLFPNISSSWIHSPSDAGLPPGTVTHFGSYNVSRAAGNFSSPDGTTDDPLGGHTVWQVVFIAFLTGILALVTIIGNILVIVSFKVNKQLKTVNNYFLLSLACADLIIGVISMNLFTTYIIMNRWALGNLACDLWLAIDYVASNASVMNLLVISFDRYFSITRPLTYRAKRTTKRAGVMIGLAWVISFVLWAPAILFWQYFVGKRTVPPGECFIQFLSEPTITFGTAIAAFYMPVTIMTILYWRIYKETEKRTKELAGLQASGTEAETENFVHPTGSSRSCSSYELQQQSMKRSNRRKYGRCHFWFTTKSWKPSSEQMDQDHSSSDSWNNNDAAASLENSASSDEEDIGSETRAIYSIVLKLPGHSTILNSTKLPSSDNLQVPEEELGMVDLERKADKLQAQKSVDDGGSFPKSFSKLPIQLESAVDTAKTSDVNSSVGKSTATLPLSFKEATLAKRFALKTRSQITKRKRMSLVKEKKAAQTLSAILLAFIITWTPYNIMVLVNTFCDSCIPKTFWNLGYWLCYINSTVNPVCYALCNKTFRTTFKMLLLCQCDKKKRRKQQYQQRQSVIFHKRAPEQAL
Chain of 5-hydroxytryptamine receptor 2B (P41595 whole entry): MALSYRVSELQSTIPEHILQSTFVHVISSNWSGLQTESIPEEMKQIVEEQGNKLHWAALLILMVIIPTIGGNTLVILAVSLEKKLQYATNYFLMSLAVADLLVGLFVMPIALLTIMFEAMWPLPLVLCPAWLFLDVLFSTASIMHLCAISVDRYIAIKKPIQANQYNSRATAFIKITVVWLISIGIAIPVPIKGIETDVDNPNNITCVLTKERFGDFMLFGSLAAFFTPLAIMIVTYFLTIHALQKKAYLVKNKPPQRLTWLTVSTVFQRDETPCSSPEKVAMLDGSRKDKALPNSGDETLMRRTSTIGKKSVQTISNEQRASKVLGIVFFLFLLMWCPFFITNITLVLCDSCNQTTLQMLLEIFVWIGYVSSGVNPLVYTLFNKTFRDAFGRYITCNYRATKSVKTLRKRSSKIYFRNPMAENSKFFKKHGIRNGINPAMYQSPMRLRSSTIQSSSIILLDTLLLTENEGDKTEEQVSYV
Chain of 5-hydroxytryptamine receptor 2A (P28223 whole entry): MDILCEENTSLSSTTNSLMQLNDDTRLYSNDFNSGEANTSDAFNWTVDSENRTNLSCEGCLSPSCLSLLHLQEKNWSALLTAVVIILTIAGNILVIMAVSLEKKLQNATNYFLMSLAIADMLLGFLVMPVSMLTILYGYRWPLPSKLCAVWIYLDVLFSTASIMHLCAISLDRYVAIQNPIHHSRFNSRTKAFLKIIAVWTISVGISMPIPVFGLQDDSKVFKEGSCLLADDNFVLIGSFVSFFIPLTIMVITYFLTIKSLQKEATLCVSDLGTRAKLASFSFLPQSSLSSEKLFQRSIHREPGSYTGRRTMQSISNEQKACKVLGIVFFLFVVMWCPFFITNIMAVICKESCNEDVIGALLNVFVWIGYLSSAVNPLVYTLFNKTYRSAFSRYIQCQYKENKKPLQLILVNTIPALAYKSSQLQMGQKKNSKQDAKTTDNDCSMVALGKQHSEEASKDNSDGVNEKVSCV
Chain of Histamine H1 receptor (P35367 whole entry): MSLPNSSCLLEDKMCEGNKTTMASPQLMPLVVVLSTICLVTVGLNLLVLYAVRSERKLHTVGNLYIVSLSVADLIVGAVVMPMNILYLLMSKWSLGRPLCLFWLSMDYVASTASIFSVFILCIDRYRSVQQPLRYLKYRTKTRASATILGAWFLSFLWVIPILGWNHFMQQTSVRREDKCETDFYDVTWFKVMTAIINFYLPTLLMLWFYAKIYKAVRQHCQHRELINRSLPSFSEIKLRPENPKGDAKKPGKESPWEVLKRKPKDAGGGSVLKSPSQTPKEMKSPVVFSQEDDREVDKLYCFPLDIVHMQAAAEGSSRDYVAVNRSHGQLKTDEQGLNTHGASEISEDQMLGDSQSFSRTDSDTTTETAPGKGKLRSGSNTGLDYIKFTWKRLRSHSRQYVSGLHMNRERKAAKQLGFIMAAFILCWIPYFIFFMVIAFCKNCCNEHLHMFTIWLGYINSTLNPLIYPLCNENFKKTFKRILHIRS
Chain of Mu-type opioid receptor (P35372 whole entry): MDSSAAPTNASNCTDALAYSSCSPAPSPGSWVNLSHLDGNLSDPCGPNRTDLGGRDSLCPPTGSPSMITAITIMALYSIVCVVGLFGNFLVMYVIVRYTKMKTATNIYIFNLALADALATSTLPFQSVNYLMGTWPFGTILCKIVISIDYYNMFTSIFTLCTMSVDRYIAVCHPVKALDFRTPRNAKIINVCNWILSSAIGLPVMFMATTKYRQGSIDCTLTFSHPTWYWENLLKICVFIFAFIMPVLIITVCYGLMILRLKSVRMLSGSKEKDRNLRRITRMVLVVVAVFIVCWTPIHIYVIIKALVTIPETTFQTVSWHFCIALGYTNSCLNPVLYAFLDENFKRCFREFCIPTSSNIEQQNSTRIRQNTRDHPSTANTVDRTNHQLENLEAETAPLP

Broadly, the AC50 is the concentration giving half of the maximal activity seen. High values mean weaker potency, low ones greater potency. Turning to `CC/C=C\C/C=C\C/C=C\CCCCCCCC(=O)O` [LINOLENIC ACID], the AC50 (on Adenosine receptor A1; in experiment [1]; in experiment [2]; on B2 bradykinin receptor; in experiment [3]; in experiment [4]) was over 30 µM in each case. In addition, the AC50 (at Histamine H1 receptor; in experiment [5]; in [6]; on Mu-type opioid receptor) was over 30 µM each time.

With `COc1ccc(C(=O)NCc2ccc(OCCN(C)C)cc2)cc1OC` [ITOPRIDE], the AC50 (at Adenosine receptor A1; in experiment [1]; in experiment [2]; on B2 bradykinin receptor; in [3]; in experiment [4]) was over 30 µM each time. The AC50 (on Histamine H1 receptor; in experiment [5]; in experiment [6]; in experiment [7]) was over 30 µM throughout.

Take `CCOC(=O)[C@H](CCc1ccccc1)N[C@H]1CCCN2CCC[C@@H](C(=O)O)N2C1=O` [CILAZAPRIL]: the AC50 (on Adenosine receptor A1; in experiment [1]; in [2]; at B2 bradykinin receptor; in experiment [3]; in [4]) was over 30 µM throughout. In addition, the AC50 (on Histamine H1 receptor; in [5]; in experiment [6]; in experiment [7]) was over 30 µM each time.

Turning to `C=C1CC[C@@]2(O)[C@H]3Cc4ccc(O)c5c4[C@@]2(CCN3CC2CC2)[C@H]1O5`, the AC50 (at Adenosine receptor A1; in experiment [1]; in experiment [2]; on B2 bradykinin receptor; in [3]; in [4]) was over 30 µM throughout. In addition, the AC50 (on Histamine H1 receptor; in experiment [5]; in [6]; in experiment [7]) was over 30 µM each time.

Take `[H]/N=C(/N)c1ccc(NCc2nc3cc(C(=O)N(CCC(=O)O)c4ccccn4)ccc3n2C)cc1` [DABIGATRAN]: the concentration at half-maximal activity (AC50) (on Adenosine receptor A1; in [1]; in experiment [2]; at B2 bradykinin receptor; in experiment [3]; in experiment [4]) was over 30 µM throughout. The AC50 (at Histamine H1 receptor; in [5]; in experiment [6]; in experiment [7]; at Mu-type opioid receptor) was over 30 µM throughout.

As for `CCCCCOC(=O)Nc1nc(=O)n([C@@H]2O[C@H](C)[C@@H](O)[C@H]2O)cc1F` [CAPECITABINE], the AC50 (on Adenosine receptor A1; in experiment [1]; in [2]; on B2 bradykinin receptor; in experiment [3]; in experiment [4]) was over 30 µM in each case. In addition, the AC50 (at Histamine H1 receptor; in experiment [5]; in experiment [6]; in experiment [7]) was over 30 µM in each case.

Regarding `O=C(C[S+]([O-])C(c1ccccc1)c1ccccc1)NO` (stereo unspecified), the AC50 (on Adenosine receptor A1; in experiment [1]; in [2]; on B2 bradykinin receptor; in experiment [3]; in experiment [4]) was over 30 µM throughout. The half-maximal activity concentration (AC50) (on Histamine H1 receptor; in experiment [5]; in experiment [6]; in experiment [7]) was over 30 µM each time.

For the compound `Nc1ncnc2c1ncn2[C@@H]1O[C@H](COP(=O)(O)O)[C@@H](O)[C@H]1O` [ADENOSINE PHOSPHATE], the AC50 (at Adenosine receptor A1; in experiment [1]; in experiment [2]; at B2 bradykinin receptor; in experiment [3]; in [4]) was over 30 µM each time. In addition, the AC50 (on Histamine H1 receptor; in experiment [5]; in experiment [6]; in experiment [7]) was over 30 µM throughout.

Turning to TOCOFERSOLAN, the AC50 (on Adenosine receptor A1; in experiment [1]; in experiment [2]; on B2 bradykinin receptor; in experiment [3]; in experiment [4]) was over 30 µM in each case. Further, the AC50 (on Histamine H1 receptor; in experiment [5]; in [6]; in experiment [7]) was over 30 µM each time.

Consider `O=C(OCCN1CCOCC1)c1cccnc1Nc1cccc(C(F)(F)F)c1` [MORNIFLUMATE], for which the AC50 (on Adenosine receptor A1; in [1]; in [2]; on B2 bradykinin receptor; in experiment [3]; in [4]) was over 30 µM throughout. Moreover, the AC50 on Histamine H1 receptor was over 30 µM; in [5] it was over 30 µM; in experiment [6], over 30 µM; in [7] it was 10 µM.

Consider `C[C@H]1C[C@@H]2[C@H]([C@@H](O)C[C@@]3(C)[C@H]2CC[C@]3(O)C(=O)COC(=O)CCC(=O)O)[C@@]2(C)C=CC(=O)C=C12` [METHYLPREDNISOLONE HEMISUCCINATE], for which the AC50 (on Adenosine receptor A1; in [1]; in experiment [2]; at B2 bradykinin receptor; in [3]; in experiment [4]) was over 30 µM throughout. Moreover, the AC50 (at Histamine H1 receptor; in experiment [5]; in experiment [6]; in [7]) was over 30 µM in each case.

Regarding `COC(=O)[C@H]1[C@@H](OC(=O)c2ccccc2)C[C@@H]2CC[C@H]1N2C` [COCAINE], the AC50 (at Adenosine receptor A1; in experiment [1]; in experiment [2]; at B2 bradykinin receptor; in experiment [3]; in experiment [4]) was over 30 µM throughout. In addition, the AC50 (at Histamine H1 receptor; in experiment [5]; in experiment [6]; in experiment [7]) was over 30 µM each time.
